{
  "source": "patent US11331364B2",
  "about": "“Use for JNK inhibitor molecules for treatment of various diseases” (Xigen Inflammation Ltd., priority 2014, dated 2022)",
  "key": {"[1]": {"test_system": "THP1 differentiated macrophages", "assay": "LPS-induced cytokine release in PMA differentiated THP1 macrophages (ELISA)", "format": "cell-based, human", "protocol": "In the following the procedure will be set forth describing how the released amount of several human cytokines after ligand induced secretion from human cells (Blood, WBC, PBMC, purified primary lymphocytes, cell lines, . . . ) was measured.\nThe technique used is a Sandwich ELISA, which allows measuring the amount of antigen between two layers of antibodies (i.e. capture and detection antibody). The antigen to be measured must contain at least two antigenic sites capable of binding to antibody, since at least two antibodies act in the sandwich. Either monoclonal or polyclonal antibodies can be used as the capture and detection antibodies in Sandwich ELISA systems. Monoclonal antibodies recognize a single epitope that allows fine detection and quantification of small differences in antigen. A polyclonal is often used as the capture antibody to pull down as much of the antigen as possible.\nThe method may be used to determine the effect of the JNK inhibitors of the present invention in vitro/cell culture. At non toxic doses, compound efficacy is indicated by the decrease of the cytokine levels (the variation of optical density (absorbance at 450 nm)) as compared to non-treated samples and is monitored by ELISA. Results are express in ng/ml.\nIn the following the procedure will be set forth describing how cytokine production from human PMA differentiated THP1 cells challenged by LPS for 6 h was induced in order to test the ability of JNK inhibitors of the present invention, in particular of a JNK inhibitor with SEQ ID NO: 172, to reduce stimulation-induced cytokine release. THP1 cells were stimulated ex-vivo by different ligands for the readout of cytokine release. At non toxic doses, JNK inhibitor efficacy is indicated by the decrease of the cytokine levels as compared to non-treated samples and is monitored by ELISA. The toxicity of the compound are evaluated by the reduction of a tretazolium salt (MTS) to formazan, giving a purple colour.\nThe cells were counted. […]"}, "[2]": {"test_system": "primary human T-cells", "assay": "IL-2 secretion by primary human T-cells", "format": "cell-based", "text": "The JNK inhibitors used are indicated by their SEQ ID NO: 172 and 197."}, "[3]": {"test_system": "established type II collagen arthritis in rats", "assay": "Chronic established type II collagen arthritis, daily IV 14 days", "format": "in vivo, rat", "text": "Rat collagen arthritis is an experimental model of polyarthritis that has been widely used for preclinical testing of numerous anti-arthritic agents that are either under preclinical or clinical investigation or are currently used as therapeutics in this disease. […] Animals were terminated on arthritis day 14."}, "[4]": {"test_system": "K5.STAT3C mouse model of psoriasis", "assay": "K5.STAT3C mouse model of psoriasis, tape stripping, acanthosis", "format": "in vivo", "conditions": "5 mg/kg IP QD D0-D5", "protocol": "To this end, two independent experiments are performed, each with at least 15 mice per experiment (5 mice per group). In each experiment, BK5.STAT3C heterozygous transgenic mice (Tg(KRT5-Stat3*A661C*N663C)1Jdg, henceforth referred to as K5.STAT3C mice) were randomly allocated to the following experimental groups 1 and 2, and wild-type littermates were allocated to group 3:\nOn Day 0, psoriasis is induced by tape striping (12-18 times) the back of the mouse after depilation. To this end, mice were anaesthetized using a Ketamine/Xylazine cocktail (100 mg/kg and 10 mg/kg respectively) intraperitoneally, shaved, depilated and skin injury was applied by 15 gentle strokes of tape stripping. Mice were treated with either vehicle (saline) or XG-104 right before anaesthesia on day 0 and once a day thereafter for 5 days. […]\nAnimals are weighed once on day 0. […] After termination of the study at day 5, approximately 1 cm^2 skin biopsy (lesions) is collected on the back of each mouse, embedded with Optimal Cutting Temperature (OCT)-containing moulds, frozen on dry ice, sectioned in 6 μm slices using a cryotome and stained with H&E. Epidermal thickness (acanthosis) is histologically measured blinded by two independent experimenters. One slide per mouse and 10 different zones of the sections are measured."}, "[5]": {"conditions": "dissolved in 0.9% NaCl, up to 0.4 mg/ml", "text": "To receive three different doses (cf. above, groups table) it has been serially diluted (1:10 fold)."}, "[6]": {"conditions": "vs disease controls, IV QD d1-14, Dex 0.05 mg/kg, SEQ ID NO: 172 up to 5 mg/kg"}},
  "note": "“Also recorded” adds a separate entry of the source. Square brackets hold non-standard residues; d marks the D form. Peptide text beside a SMILES is read from it.",
  "data": [
    {"smiles": "CC(C)C[C@H](NC(=O)[C@H](CC(N)=O)NC(=O)[C@H](CC(C)C)NC(=O)[C@@H](NC(=O)[C@@H](C)NC(=O)[C@@H]1CCCN1C(=O)[C@H](CCCNC(=N)N)NC(=O)[C@@H](CCCCN)NC(=O)[C@@H]1CCCN1C(=O)[C@H](CCCNC(=N)N)NC(=O)[C@@H](CCCNC(=N)N)NC(=O)[C@H](CCCNC(=N)N)NC(=O)[C@H](CCCNC(=N)N)NC(=O)[C@H](CCC(N)=O)NC(=O)[C@@H](CCCNC(=N)N)NC(=O)[C@H](CCCNC(=N)N)NC(=O)[C@H](CCCCN)NC(=O)[C@H](CCCCN)NC(=O)[C@H](N)CCCNC(=N)N)[C@@H](C)O)C(=O)N[C@H](Cc1ccccc1)C(N)=O", "note": "[SEQ ID NO: 172, rKKRrQRRrRPkRPaTLNLf] (H-[dR]KKR[dR]QRR[dR]RP[dK]RP[dA]TLNL[dF]-NH2; N-terminus assumed)", "values": [
      {"measurement": "LPS-induced IL6 release", "setting": "[1]; LPS added for 6 h", "result": "higher potency than D-TAT-IB1 (SEQ ID NO: 197), dTAT (SEQ ID NO: 45) and SP 600125; also recorded: higher potency than D-TAT-IB1 (SEQ ID NO: 197) and L-TAT-IB1 (SEQ ID NO: 196)"},
      {"measurement": "LPS-induced TNFα release", "setting": "[1]; PMA/THP1 differentiated macrophages, LPS", "result": "higher potency than D-TAT-IB1 (SEQ ID NO: 197), dTAT (SEQ ID NO: 45) and SP 600125; also recorded: higher potency than D-TAT-IB1 (SEQ ID NO: 197) and L-TAT-IB1 (SEQ ID NO: 196)"},
      {"measurement": "LPS-induced cytokine and chemokine release", "setting": "[1]; THP1-PMA-differentiated macrophages, TNF, IL 6, MCP1, 6 h LPS", "result": "blocks LPS-induced cytokine and chemokine release"},
      {"measurement": "IL-2 secretion in response to CD3/CD28 stimulation", "setting": "[2]", "result": "blocks IL-2 secretion"},
      {"measurement": "IL-2 secretion in response to PMA/Ionomycin", "setting": "[2]", "result": "blocks IL-2 secretion"},
      {"measurement": "ankle diameter AUC, reduction toward normal", "setting": "[3]; 1 mg/kg IV QD d1-14", "result": 27, "unit": "%"},
      {"measurement": "inhibition of body weight loss vs disease controls", "setting": "[3]; 1 mg/kg IV QD d1-14", "result": 21, "unit": "%"},
      {"measurement": "ankle diameter AUC, reduction toward normal", "setting": "[3]; 5 mg/kg IV QD d1-14", "result": 43, "unit": "%"},
      {"measurement": "ankle histopathology, reduction of summed scores", "setting": "[3]; 5 mg/kg IV QD d1-14", "result": 25, "unit": "%"},
      {"measurement": "final paw weights, reduction toward normal", "setting": "[3]; 5 mg/kg IV QD d1-14", "result": 26, "unit": "%"},
      {"measurement": "inhibition of body weight loss vs disease controls", "setting": "[3]; 5 mg/kg IV QD d1-14", "result": 25, "unit": "%"},
      {"measurement": "knee histopathology, reduction of summed scores", "setting": "[3]; 5 mg/kg IV QD d1-14", "result": 73, "unit": "%"},
      {"measurement": "daily ankle diameter measurements", "setting": "[3]; 5 mg/kg IV QD, p<0.05 days 4-12", "result": "reduced toward normal"},
      {"measurement": "effect on organ weights", "setting": "[3]; IV QD d1-14", "result": "no adverse effect on organ weights"},
      {"measurement": "spleen weights relative to body weight", "setting": "[3]; [6]", "result": "not significantly affected"},
      {"measurement": "thymus weights relative to body weight", "setting": "[3]; [6]", "result": "not significantly affected"},
      {"measurement": "acanthosis (epidermal thickness)", "setting": "[4]", "result": "significantly reduced the acanthosis"},
      {"measurement": "parakeratosis", "setting": "[4]", "result": "absence of any parakeratosis"},
      {"measurement": "solubility", "setting": "[5]", "result": "readily soluble and did not fall out of solution"}
    ]}
  ]
}
